Tested on: patients with inadequately managed, severe chronic low back pain with or without a neuropathic pain component
Experiment: Patient Global Impression of Change (PGIC), same trial
Format: in vivo, human patients
Excerpt: This was a multicenter, multinational, open-label, effectiveness phase IIIb trial to evaluate effectiveness and safety of tapentadol prolonged release treatment in patients with inadequately managed, severe chronic low back pain with or without a neuropathic pain component. Patients taking WHO Step II analgesics discontinued those analgesics before starting study medication; patients taking Step I analgesics and/or centrally acting co-analgesics continued on the same dose. […] All patients received tapentadol prolonged release (50-250 mg bid) for up to 12 weeks (5-week titration period and a 7-week maintenance period). Tapentadol immediate release (IR) 50 mg (twice a day, hours apart) was permitted (combined total daily dose of tapentadol prolonged release and tapentadol IR, 500 mg/day). The primary efficacy endpoint was the change from Baseline to Week 6 (when tapentadol prolonged release doses were stable) in average pain intensity on the 11-point NRS-3 using the last observation carried forward (LOCF) for imputing missing scores. The painDETECT questionnaire was used to evaluate the likelihood of a neuropathic pain component of low back pain; patients were classified as painDETECT “negative,” “unclear,” or “positive.” The population of patients classified as painDETECT negative was limited to approximately 30% of the total population.
All subjects completed Short Form-36 (SF-36) and EuroQol-5 Dimension (EQ-5D) questionnaires and the Hospital Anxiety and Depression Scale (HADS). The Patient Global Impression of Change (PGIC) and Clinical global impression of change (CGIC) were also used as secondary endpoints. For both tests, patients completed the statement, “since I began trial treatment, I would rate my overall condition as,” using 7 possible responses (“very much worse” to “very much improved”). Adverse events were recorded throughout the trial.

## CC[C@@H](c1cccc(O)c1)[C@@H](C)CN(C)C [tapentadol, (−)-(1R,2R)-3-(3-dimethylamino-1-ethyl-2-methyl-propyl)-phenol]
Week 1 (26/172)
  percentage of patients reporting “very much improved” or “much improved” on the PGIC: 15.1%
Week 6 (67/138)
  percentage of patients reporting “very much improved” or “much improved” on the PGIC: 48.6%
Week 12 (61/91)
  percentage of patients reporting “very much improved” or “much improved” on the PGIC: 67.1%
